Assay results: PubChem BioAssay (NCI)
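All cell lines were grown in 96-well plates and treated with compound for 48 hours. TGI marks complete inhibition of growth.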

Tests used:
Experiment in all cases: growth of human tumour cells (NCI), 48 h
EKVX NSCLC = tested on: EKVX NSCLC
OVCAR-3 ovarian = tested on: OVCAR-3 ovarian
KM12 colon = tested on: KM12 colon
UACC-257 melanoma = tested on: UACC-257 melanoma
OVCAR-4 ovarian = tested on: OVCAR-4 ovarian
HCC-2998 colon = tested on: HCC-2998 colon
U251 CNS = tested on: U251 CNS
LOX IMVI melanoma = tested on: LOX IMVI melanoma
M14 melanoma = tested on: M14 melanoma
SK-MEL-2 melanoma = tested on: SK-MEL-2 melanoma
NCI-H460 lung = tested on: NCI-H460 lung
A498 renal = tested on: A498 renal
OVCAR-5 ovarian = tested on: OVCAR-5 ovarian
TK-10 renal = tested on: TK-10 renal
786-0 renal = tested on: 786-0 renal
SNB-19 CNS = tested on: SNB-19 CNS
CAKI-1 renal = tested on: CAKI-1 renal
CCRF-CEM leukemia = tested on: CCRF-CEM leukemia
SK-OV-3 ovarian = tested on: SK-OV-3 ovarian
A549 NSCLC = tested on: A549 NSCLC
UACC-62 melanoma = tested on: UACC-62 melanoma
SF-295 CNS = tested on: SF-295 CNS
UO-31 renal = tested on: UO-31 renal
DLD-1 colon = tested on: DLD-1 colon
SF-539 CNS = tested on: SF-539 CNS
SK-MEL-28 melanoma = tested on: SK-MEL-28 melanoma
MALME-3M melanoma = tested on: MALME-3M melanoma
SK-MEL-5 melanoma = tested on: SK-MEL-5 melanoma
RXF-631 renal = tested on: RXF-631 renal
NCI-H226 lung = tested on: NCI-H226 lung
HCT-15 colon = tested on: HCT-15 colon
HT29 colon = tested on: HT29 colon
XF 498 CNS = tested on: XF 498 CNS
SF-268 CNS = tested on: SF-268 CNS
NCI-H23 lung = tested on: NCI-H23 lung
MOLT-4 leukemia = tested on: MOLT-4 leukemia
COLO 205 colon = tested on: COLO 205 colon
NCI-H522 lung = tested on: NCI-H522 lung
K-562 leukemia = tested on: K-562 leukemia
HL-60(TB) leukemia = tested on: HL-60(TB) leukemia
SW-620 colon = tested on: SW-620 colon
SNB-75 CNS = tested on: SNB-75 CNS
KM20L2 colon = tested on: KM20L2 colon
LXFL 529 NSCLC = tested on: LXFL 529 NSCLC
DMS 273 small cell lung = tested on: DMS 273 small cell lung
ACHN renal = tested on: ACHN renal
RXF 393 renal = tested on: RXF 393 renal
HOP-18 NSCLC = tested on: HOP-18 NSCLC
IGROV1 ovarian = tested on: IGROV1 ovarian
RPMI-8226 leukemia = tested on: RPMI-8226 leukemia
HOP-92 NSCLC = tested on: HOP-92 NSCLC
SN12C renal = tested on: SN12C renal
OVCAR-8 ovarian = tested on: OVCAR-8 ovarian

Measured: TGI

CC(NS(=O)(=O)c1ccc([N+](=O)[O-])cc1)C(=O)O (stereo not drawn)
> 100 µM: all assays above
